Key:
[1] = Solubility of the compound in ethanol; type: physicochemical
[2] = Solubility of the compound in isopropanol; type: physicochemical
[3] = Solubility of the compound in DMSO/TFA; type: physicochemical
[4] = Solubility of the compound in chloroform; type: physicochemical
[5] = Solubility of the compound in trifluoroacetic acid; type: physicochemical
[6] = Solubility of the compound in CHCl3/TFA; type: physicochemical
[7] = Solubility of the compound in DMSO; type: physicochemical
[8] = Cytotoxicity against human LN229 cells assessed as concentration required for induction of cell death after 24 hrs by crystal violet staining based light microscopic analysis; type: functional, LN-229

SMILES	solubility [1]	solubility [2]	Activity [8] [µg/mL]	further results
O=C1NC(=O)C(C(=O)Nc2ccc(Cl)cc2Cl)C(=O)N1	Insoluble	Insoluble	–	–
O=C1NC(=O)C(C(=O)NNC(=O)Nc2ccc(Cl)c(Cl)c2)C(=O)N1	Insoluble	Insoluble	–	solubility [3]: Soluble; solubility [4]: Insoluble; solubility [5]: Soluble; solubility [6]: Soluble; solubility [7]: Insoluble
N#Cc1ccc(NC(=O)NNC(=O)C2C(=O)NC(=O)NC2=O)cc1	Insoluble	Insoluble	–	solubility [3]: Soluble; solubility [4]: Insoluble; solubility [5]: Soluble; solubility [6]: Soluble; solubility [7]: Insoluble
CN1C(=O)C(C(=O)Nc2cccc3ccccc23)C(=O)N(C)C1=O	–	–	100	–
O=C1NC(=O)C(C(=O)Nc2ccc([N+](=O)[O-])cc2)C(=O)N1	Insoluble	Insoluble	100	–
O=C1NC(=O)C(C(=O)Nc2cccc3ccccc23)C(=O)N1	–	–	100	–
O=C1NC(=O)C(C(=O)Nc2ccc3cc4ccccc4cc3c2)C(=O)N1	–	–	100	–
CCOC(=O)c1ccc(NC(=O)C2C(=O)NC(=O)NC2=O)cc1	Insoluble	Insoluble	100	–
O=C1NC(=O)C(C(=O)Nc2ccc(Cl)cc2)C(=O)N1	Insoluble	Insoluble	–	–
O=C1NC(=O)N(c2ccccc2)C(=O)C1C(=O)Nc1ccc(I)cc1 (configuration not stated)	–	–	100	–
CN1C(=O)NC(=O)C(C(=O)Nc2ccc3cc4ccccc4cc3c2)C1=O (configuration not stated)	–	–	100	–
O=C1NC(=O)C(C(=O)NNC(=O)Nc2ccc([N+](=O)[O-])cc2)C(=O)N1	Insoluble	Insoluble	–	solubility [3]: Soluble; solubility [4]: Insoluble; solubility [5]: Soluble; solubility [6]: Soluble; solubility [7]: Insoluble
O=C1NC(=O)C(C(=O)Nc2cc(Cl)ccc2Cl)C(=O)N1	Insoluble	Insoluble	–	–
O=C(NNC(=O)C1C(=O)NC(=O)N(c2ccccc2)C1=O)Nc1cccc(O)c1 (configuration not stated)	Insoluble	Insoluble	–	solubility [3]: Insoluble; solubility [4]: Insoluble; solubility [5]: Insoluble; solubility [6]: Insoluble; solubility [7]: Insoluble
O=C1NC(=O)C(C(=O)NNC(=O)Nc2ccc(O)cc2)C(=O)N1	Insoluble	Insoluble	–	solubility [3]: Soluble; solubility [4]: Insoluble; solubility [5]: Soluble; solubility [6]: Soluble; solubility [7]: Insoluble
O=C1NC(=O)C(C(=O)Nc2cc(Cl)cc(Cl)c2)C(=O)N1	Insoluble	Insoluble	–	–
COc1ccc(NC(=O)C2C(=O)NC(=O)NC2=O)cc1OC	Insoluble	Insoluble	–	–
O=C1NC(=O)C(C(=O)Nc2cccc([N+](=O)[O-])c2)C(=O)N1	Insoluble	Insoluble	–	–
O=C1NC(=O)C(C(=O)Nc2ccc(F)cc2)C(=O)N1	Insoluble	Insoluble	–	–
COc1ccc(NC(=O)C2C(=O)NC(=O)NC2=O)cc1	Insoluble	Insoluble	–	–
CN1C(=O)C(C(=O)Nc2ccc(O)cc2)C(=O)N(C)C1=O	–	–	100	–
O=C1NC(=O)C(C(=O)Nc2ccc(Cl)c(Cl)c2)C(=O)N1	Insoluble	Insoluble	–	–
NC(=O)c1ccc(NC(=O)C2C(=O)NC(=O)NC2=O)cc1	Insoluble	Insoluble	–	–

SMILES	solubility [1]	solubility [2]	Activity [8] [µg/mL]	further results
CN1C(=O)C(C(=O)NNC(=O)Nc2cccc(O)c2)C(=O)N(C)C1=O	Insoluble	Insoluble	–	solubility [3]: Insoluble; solubility [4]: Insoluble; solubility [5]: Insoluble; solubility [6]: Insoluble; solubility [7]: Insoluble
O=C(O)c1ccc(NC(=O)C2C(=O)NC(=O)N(c3ccccc3)C2=O)cc1 (configuration not stated)	–	–	100	–
CN1C(=O)C(C(=O)Nc2ccc(Br)cc2)C(=O)N(C)C1=O	–	–	100	–
CN1C(=O)NC(=O)C(C(=O)NNC(=O)Nc2ccc(Cl)c(Cl)c2)C1=O (configuration not stated)	Insoluble	Insoluble	–	solubility [3]: Insoluble; solubility [4]: Insoluble; solubility [5]: Insoluble; solubility [6]: Insoluble; solubility [7]: Insoluble
O=C1NC(=O)C(C(=O)NNC(=O)Nc2cccc(O)c2)C(=O)N1	Insoluble	Insoluble	–	solubility [3]: Soluble; solubility [4]: Insoluble; solubility [5]: Soluble; solubility [6]: Soluble; solubility [7]: Insoluble
O=C(NNC(=O)C1C(=O)NC(=O)N(c2ccccc2)C1=O)Nc1ccccc1 (configuration not stated)	Insoluble	Insoluble	–	solubility [3]: Insoluble; solubility [4]: Insoluble; solubility [5]: Insoluble; solubility [6]: Insoluble; solubility [7]: Insoluble
CN1C(=O)C(C(=O)Nc2ccc(Cl)cc2Cl)C(=O)N(C)C1=O	–	–	100	–
O=C1NC(=O)C(C(=O)Nc2ccc(I)cc2)C(=O)N1	Insoluble	Insoluble	–	–
CN1C(=O)C(C(=O)NNC(=O)Nc2ccccc2)C(=O)N(C)C1=O	Insoluble	Insoluble	–	solubility [3]: Insoluble; solubility [4]: Insoluble; solubility [5]: Insoluble; solubility [6]: Insoluble; solubility [7]: Insoluble
CN1C(=O)C(C(=O)Nc2ccc3cc4ccccc4cc3c2)C(=O)N(C)C1=O	–	–	100	–
O=C1NC(=O)N(c2ccccc2)C(=O)C1C(=O)Nc1ccc2cc3ccccc3cc2c1 (configuration not stated)	–	–	100	–
COc1ccc(NC(=O)C2C(=O)NC(=O)N(C)C2=O)cc1 (configuration not stated)	–	–	100	–
O=C1NC(=O)C(C(=O)Nc2ccc3ccccc3c2)C(=O)N1	–	–	100	–
CN1C(=O)C(C(=O)Nc2ccc(Cl)c(Cl)c2)C(=O)N(C)C1=O	–	–	100	–
COc1cc(NC(=O)C2C(=O)NC(=O)NC2=O)cc(OC)c1OC	Insoluble	Insoluble	100	–
CN1C(=O)C(C(=O)Nc2cccc(O)c2)C(=O)N(C)C1=O	–	–	100	–
O=C1NC(=O)C(C(=O)Nc2ccc(Br)cc2)C(=O)N1	Insoluble	Insoluble	–	–
CN1C(=O)NC(=O)C(C(=O)Nc2ccc(Cl)cc2)C1=O (configuration not stated)	–	–	100	–
CN1C(=O)C(C(=O)Nc2cc(Cl)ccc2Cl)C(=O)N(C)C1=O	–	–	100	–
CN1C(=O)C(C(=O)Nc2ccc([N+](=O)[O-])cc2)C(=O)N(C)C1=O	–	–	100	–
O=C1NC(=O)C(C(=O)Nc2ccc(C(=O)O)cc2)C(=O)N1	Insoluble	Insoluble	–	–
CN1C(=O)C(C(=O)Nc2ccccc2-c2ccccc2)C(=O)N(C)C1=O	–	–	100	–
O=C1NC(=O)C(C(=O)Nc2cccc(Br)c2)C(=O)N1	Insoluble	Insoluble	100	–

SMILES	solubility [1]	solubility [2]	Activity [8] [µg/mL]	further results
O=C1NC(=O)N(c2ccccc2)C(=O)C1C(=O)Nc1nc2ccc([N+](=O)[O-])cc2s1 (configuration not stated)	–	–	100	–
CN1C(=O)C(C(=O)Nc2cccc(I)c2)C(=O)N(C)C1=O	–	–	100	–
O=C1NC(=O)C(C(=O)Nc2ccc(O)cc2)C(=O)N1	Insoluble	Insoluble	100	–
CN1C(=O)C(C(=O)Nc2ccc(C(=O)O)cc2)C(=O)N(C)C1=O	–	–	100	–
O=C1NC(=O)N(c2ccccc2)C(=O)C1C(=O)Nc1ccc(Br)cc1 (configuration not stated)	–	–	100	–
CN1C(=O)C(C(=O)Nc2cccc(Br)c2)C(=O)N(C)C1=O	–	–	100	–
CN1C(=O)C(C(=O)Nc2cccc(Cl)c2Cl)C(=O)N(C)C1=O	–	–	100	–
Cc1ccc(NC(=O)C2C(=O)NC(=O)NC2=O)cc1C	Insoluble	Insoluble	100	–
COc1cc(NC(=O)C2C(=O)NC(=O)N(c3ccccc3)C2=O)cc(OC)c1OC (configuration not stated)	–	–	100	–
CN1C(=O)C(C(=O)NNc2ccc([N+](=O)[O-])cc2)C(=O)N(C)C1=O	–	–	100	–
CN1C(=O)NC(=O)C(C(=O)Nc2cccc(O)c2)C1=O (configuration not stated)	–	–	100	–
COc1ccc(NC(=O)C2C(=O)NC(=O)N(c3ccccc3)C2=O)cc1 (configuration not stated)	–	–	100	–
O=C1NC(=O)C(C(=O)Nc2ccccc2)C(=O)N1	Insoluble	Insoluble	–	–
COc1ccc2nc(NC(=O)C3C(=O)NC(=O)N(c4ccccc4)C3=O)sc2c1 (configuration not stated)	–	–	100	–
O=C1NC(=O)C(C(=O)Nc2cccc(Cl)c2Cl)C(=O)N1	Insoluble	Insoluble	–	–
O=C1NC(=O)N(c2ccccc2)C(=O)C1C(=O)Nc1ccc(Cl)cc1Cl (configuration not stated)	–	–	100	–
O=C1NC(=O)N(c2ccccc2)C(=O)C1C(=O)Nc1cccc2ccccc12 (configuration not stated)	–	–	100	–
CCOC(=O)c1ccc(NC(=O)C2C(=O)N(C)C(=O)N(C)C2=O)cc1	–	–	100	–
CN1C(=O)C(C(=O)Nc2ccccc2O)C(=O)N(C)C1=O	–	–	100	–
CN1C(=O)C(C(=O)Nc2ccc(-c3ccccc3)cc2)C(=O)N(C)C1=O	–	–	100	–
O=C1NC(=O)C(C(=O)Nc2cccc(O)c2)C(=O)N1	Insoluble	Insoluble	–	–
CN1C(=O)C(C(=O)Nc2ccc3ccccc3c2)C(=O)N(C)C1=O	–	–	100	–
O=C1NC(=O)N(c2ccccc2)C(=O)C1C(=O)Nc1ccccc1 (configuration not stated)	–	–	100	–

Source: ChEMBL document CHEMBL3862023, “Synthesis of N-aryl and N-arylcarbamoylamino derivatives of 1,3-diazinane-5-carboxamide and their activity against glioblastoma LN-229 cell line” (Bioorg Med Chem, 2016)
